EC50 data for two molecules are collected here from patent publication US9006241B2, “Pyrimidine derivatives” (Noviga Research AB, priority 2011, dated 2015).

Common to all, as to format: cell-based
Assay [1] concerns 8226/Dox40 (doxorubicin-resistant myeloma). The assay can be described thus: FMCA, 8226/Dox40. The following applies: 8226/Dox40 doxorubicin-resistant myeloma cells. An excerpt: (§1) The Fluorometric Microculture Cytotoxicity Assay, FMCA (Larsson, R., et al.; Anticancer Res, 1989, 9, 1111-1119), is a three day non-clonogenic microplate-based cell viability assay used for measurement of the cytotoxic and/or cytostatic effect of compounds in vitro (Lindhagen, E. et al.; Nat. Protoc., 2008, 3, 1364-1369). FMCA represents a valuable method to measure cytotoxicity in a number of cell types, both cell lines and primary cells from patients (Larsson, R., et al.; Int. J. Cancer, 1992, 50, 177-185; Fridborg, H., et al.; Eur. J. Cancer, 1999. 35, 424-432; Dhar, S., et al.; Br. J. Cancer, 1996, 74, 888-896).
(§2) FMCA is based on the principle that fluorescein diacetate (FDA) is converted to the fluorescent probe fluorescein by esterases in the plasma membranes of living cells. For experiments, 96 or 384-well microplates are prepared with compounds and stored at −70° C. until use. Cells are then seeded into the drug-prepared plates and placed in an incubator for 72 h. On the last day of incubation, the plates are washed and a buffer containing FDA is added and incubated with the cells for 45 minutes. Finally the fluorescence per well is measured in a fluorometer and a Survival Index % (SI) for each compound-treated well is calculated with the equation: Compound-treated cells minus blank divided by control cells minus blank. A high SI-value indicates a large percentage of living cells and vice versa.
(§3) For dose-response experiments, 384-well plates were prepared as follows:
(§4) Compounds of the invention as well comparative kinase inhibitors sorafenib sunitinib, dasatinib, pazopanib and a reference compound disclosed in WO 2009/071535 (compound #107) were diluted with PBS to a concentration ten-times higher than the desired starting concentration. Then, a Biomek 2000 liquid handling system was employed to serially dilute the compounds in a deep-well 384-well plate. From this plate, assay plates containing 5 μl compound per well were prepared with the Biomek 2000. Certain compounds precipitated when diluted with PBS, and these compounds were therefore prepared in a 96-well plate manually as described above using culture medium RPMI 1640 instead of PBS.
(§5) The compounds were also tested at five concentrations, with five times serial dilution on the following cell types: CCRF-CEM, hTERT-RPE1 (normal retinal epithelial cells), hRPTEpiC (normal renal cells), and peripheral blood mononuclear cells (PBMC). Each experiment was performed three times, except for PBMC and hRPTEpiC, which were performed twice. SI-values were calculated, graphs were plotted using GraphPadPrism 5.0 (GraphPad Software Inc. La Jolla, Calif.) and IC50-values for each cell type and compound were determined from the curves.
(§6) The compounds of the invention were also tested on further cancer cell lines related to breast cancer (MDA-MB-231; see e.g. Cailleau, R., et al.; J. Natl. Cancer Inst., 1974, 53, 661-674), teniposide-resistant leukemia (CEM/VM1 see e.g. Danks, M., et al.; Cancer Res., 1987, 47, 1297-1301), leukemia (HL-60; see e.g. Collins, S., et al.; Nature, 1977, 270, 347-349), doxorubicin-resistant lung cancer (H69AR; see e.g. Mirski, S., et al.; Cancer Res., 1987, 47, 2594-2598), myeloma (RPMI 8226; see e.g. Matsuoka, Y., et al.; Proc. Soc. Exp. Biol. Med., 1967, 125, 1246-1250), doxorubicin-resistant myeloma (8226/Dox40; see e.g. Dalton, W., et al.; Blood, 1989, 15, 747-752), lymphoma (U-937, see e.g. Sundström, C., et al.; Int. J. Cancer, 1976, 17, 565-577), vincristin-resistant lymphoma (U-937-vcr; see e.g. Botling, J., et al.; Int. J. Cancer, 1994, 58, 269-274), ovarian cancer (A2780; see e.g. Hamilton, T., et al.; Semin. Oncol., 1984, 11, 285-298), doxorubicin-resistant ovarian cancer (A2780/Adr), cisplatin-resistant ovarian cancer (A2780/Cis; see e.g. Behrens, B., et al. Cancer Res. 1987, 47, 414-418), pancreatic cancer (PANC-1, BxPC-3, and MIA PaCa-2; see e.g. Lieber, M., et al.; Int. J. Cancer, 1975, 15, 741-747; Loor, R., et al.; Clin. Lab. […]

For assay [2], the system named is CEM/VM1 (teniposide-resistant leukemia). The assay can be described thus: FMCA, CEM/VM1. The following applies: Homo sapiens, CEM/VM1 teniposide-resistant leukemia cells.
Source text: as §1, §2, §3, §4, §5, §6

For another assay, the system named is A2780 (ovarian cancer). As to the kind of experiment: FMCA, A2780. The following applies: Homo sapiens, A2780 ovarian cancer cells.
Source text: as §1, §2, §3, §4, §5, §6

The test system of assay [3] is U-937-vcr (vincristin-resistant lymphoma). As to the kind of experiment: FMCA, U-937-vcr. The following applies: U-937-vcr vincristin-resistant lymphoma cells.
Source text: as §1, §2, §3, §4, §5, §6

The subject of assay [4] is A2780/Adr (doxorubicin-resistant ovarian cancer). As to the kind of experiment: FMCA, A2780/Adr. Particulars: A2780/Adr doxorubicin-resistant ovarian cancer cells.
Source text: as §1, §2, §3, §4, §5, §6

The test system of a further assay is U-937 (lymphoma). As to the kind of experiment: FMCA, U-937. Particulars: Homo sapiens, U-937 lymphoma cells.
Source text: as §1, §2, §3, §4, §5, §6

In assay [5] the test system is A2780/Cis (cisplatin-resistant ovarian cancer). The assay can be described thus: FMCA, A2780/Cis. Particulars: A2780cis, A2780/Cis cisplatin-resistant ovarian cancer cells.
Source text: as §1, §2, §3, §4, §5, §6

Another assay has as its system RPMI 8226 (myeloma). The assay can be described thus: FMCA, RPMI 8226. Particulars: Homo sapiens, RPMI 8226 myeloma cells.
Source text: as §1, §2, §3, §4, §5, §6

Assay [6] has as its system H69AR (doxorubicin-resistant lung cancer). As to the kind of experiment: FMCA, H69AR. The following applies: Homo sapiens, H69AR doxorubicin-resistant lung cancer cells.
Source text: as §1, §2, §3, §4, §5, §6

Assay [7] concerns CCRF-CEM cancer cells - leukemia. The assay can be described thus: Fluorometric Microculture Cytotoxicity Assay (FMCA), CCRF-CEM. Particulars: Homo sapiens, 72 h incubation.
Source text: as §1, §2
In subsequent experiments, compounds were tested, along with a number of approved cancer drugs (dasatinib, pazopanib, sorafenib, and sunitinib) as described above. Initially, the acute lymphoblastic leukemia cell line CCRF-CEM was used throughout. In the assay plates, medium was added to six empty wells (blank wells) and wells were filled with PBS and cell suspension and served as control wells. SI-values were then calculated for each compound-treated well as described above. All experiments were conducted twice and a new batch of plates was prepared for each experiment.
as §3, §4, §5

As a reminder, the EC50 is the concentration needed to bring the measured effect to its halfway point. Take `COc1ccc2[nH]cc(CCNc3nc(C)cc(Nc4ccc5[nH]c(C)cc5c4)n3)c2c1` [Example 27, N^2-[2-(5-methoxy-1H-indol-3-yl)ethyl]-6-methyl-N^4-(2-methyl-1H-indol-5-yl)pyrimidine-2,4-diamine]: the EC50 is 300 nM in assay [1]; 44 nM in [2]; 74 nM in the assay with A2780 (ovarian cancer); 62 nM in assay [3]; 440 nM in assay [4]; 41 nM in the assay with U-937 (lymphoma). Moreover, the concentration for a half-maximal effect (EC50) in assay [5] was determined as 62 nM; in the assay on RPMI 8226 (myeloma) it was 110 nM; in assay [6], 63 nM; in assay [7], 19 nM.

For the molecule `CCOc1ccc2[nH]cc(CCNc3nccc(Nc4ccc5ccn(C)c5c4)n3)c2c1` [Example 76, N^2-[2-(5-ethoxy-1H-indol-3-yl)ethyl]-N^4-(1-methylindol-6-yl)pyrimidine-2,4-diamine], the EC50 in assay [7] is less than 1000 nM.
